{"source": "patent US9867391B2", "about": "“Accelerating muscle recovery after immobilization-induced muscle atrophy” (NESTEC S.A., priority 2011, dated 2018)", "origin": "cited, not measured here", "test_system": "muscle protein synthesis", "conditions": "Kastanos et al. 2006", "data": [{"molecule": "CC(C)C[C@H](N)C(=O)O", "note": "[leucine]", "values": [{"measurement": "muscle protein synthesis in young subjects", "setting": "leucine added to the diet, young subjects", "result": "did not increased muscle protein synthesis"}, {"measurement": "muscle protein synthesis in elderly", "setting": "same leucine supplementation, elderly", "result": "efficient"}]}]}
